Experimental data as given in EP1388013B1, “COMPOSITIONS AND METHODS FOR THE USE OF FIBRONECTIN FRAGMENTS IN THE DIAGNOSIS OF CANCER” (THE REGENTS OF THE UNIVERSITY OF MICHIGAN, priority 2001, dated 2002).
No end group written: not given here.

System: metastatic DU-145 prostate cancer cells
Assay: SU-ECM invasion assay, DU-145 cells
Type: cell-based, human
Conditions: PHSRN sequence of fibronectin alone; Example 4
Method: Adult Strongylocentrotus purpuratus sea urchins were obtained from Pacific BioMarine, and their embryos were cultured to the early pluteus stage in artificial sea water at 15°C. SU-ECM were prepared from them by treatment with nonionic detergent and sterilized by dilution in the appropriate media.
[…] When appropriate, purified bovine plasma fibronectin (Sigma, St. Louis, Mo), purified 120 kDa chymotryptic fragment (Gibco BRL), PHSRN or PHSCN peptides (synthesized at the Biomedical Research Core Facilities of the University of Michigan), or GRGDSP or GRGESP peptides (Gibco BRL) were added to the resuspended cells prior to placement of the cells on SU-ECM. In each well of a plate used for an invasion assay, SU-ECM were placed in 0.5 ml of the appropriate medium, and 0.5ml of the resuspended cells dropped on their exterior surfaces. Invasion assays were incubated 1 to 16 hours prior to scoring. If some circumstances, invasion assays were fixed in phosphate-buffered saline (PBS) with 2% formaldehyde for 5 minutes at room temperature, then rinsed into PBS.
Invasion assays were coded and scored blindly by microscopic examination under phase contrast at 200- and 400-fold magnification. Each cell contacting an SU-ECM was scored for its position relative to the exterior or interior surfaces. A cell was judged to have invaded if it was located on an interior surface below the focal plane passing through the upper surface of the SU-ECM, but above the focal plane passing through its lower surface. The minimum viability of the cells in each assay was always ascertained at the time of assay by determining the fraction of spread, adherent cells on the bottom of each well scored.
An invasion frequency is defined as the fraction of cells in contact with basement membranes which were located in their interiors at the time of assay. Thus, an invasion frequency of 1 denotes invasion by 100% of the cells in contact with basement membranes. Invasion frequencies were determined multiple times for each cell type assayed. For each type of cell assayed the mean and standard deviation of the invasion frequencies were calculated.
The method of Example 4 is employed, with the addition of varying concentrations of the PHSCN peptide.
Thus, the procedure in Example 4 provides a method for determining the inhibitory potential of the PHSCN peptide by comparing the number of cell invasions in the presence of the PHSCN peptide, with the number of cell invasions in the absence of the PHSCN peptide.
In this example, in vitro invasion of cancer cells into substrates is inhibited with peptides that have been chemically modified with protecting groups and peptides having protecting groups as well as the modification wherein an L-amino acid has been replaced with the D-isomer. PHSCN peptide, blocked PHSCN peptide, and blocked PHSCN peptide with a D-cysteine instead of the L-isomer, were tested (Figure 4A, 4B).
In this example, in vitro invasion of cancer cells into substrates is inhibited with non-peptide mimetics in comparison with chemically modified peptides (on a molar basis). The peptides of Example 10 (i.e. peptides chemically modified with protecting groups and peptides having protecting groups as well as the modification wherein an L-amino acid has been replaced with the D-isomer) were compared with the non-peptide mimetics DL-N-Acetylhomocysteinethiolactone, Thiobutyrolactone, and Mercaptopropionic acid, in order to investigate the structure activity relationship for invasion inhibition by interaction with the PHSRN-binding pocket of the α5β1 fibronectin receptor (Figure 7)

## PHSRN [PHSRN]
  induction of DU-145 cell invasion of SU-ECM: induced to invade
